Target: T1, Human SST5 somatostatin receptor (Homo sapiens, UniProt P35346)
T1 construct: expressed in transfected cells; host or cells: HEK-293 EBNA cells (membranes)
Experiment: Filter plate radio-ligand binding assay for SST5 receptor ([125I]SST-14 displacement)
Settings: for % SST5 radio-ligand binding displaced at conc 0.25: conc 0.25 μM; for % SST5 radio-ligand binding displaced at conc 1.0: conc 1.0 μM; for % SST5 radio-ligand binding displaced at conc 0.5: conc 0.5 μM; for % SST5 radio-ligand binding displaced at conc 10: conc 10 μM

T1 sequence (P35346 whole entry): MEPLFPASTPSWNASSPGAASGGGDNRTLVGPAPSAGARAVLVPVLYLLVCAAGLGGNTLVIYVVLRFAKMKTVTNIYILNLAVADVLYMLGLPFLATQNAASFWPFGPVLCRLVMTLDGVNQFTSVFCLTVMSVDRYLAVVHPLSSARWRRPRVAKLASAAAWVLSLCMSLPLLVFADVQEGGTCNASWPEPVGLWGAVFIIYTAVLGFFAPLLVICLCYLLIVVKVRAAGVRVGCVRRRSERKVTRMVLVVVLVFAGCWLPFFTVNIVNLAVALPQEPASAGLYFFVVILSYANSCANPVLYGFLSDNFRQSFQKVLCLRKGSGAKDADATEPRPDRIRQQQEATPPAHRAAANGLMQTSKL

SMILES: NCCC(=O)NC1C(OCc2ccc3ccccc3c2)OC(COCc2ccccc2)C(O)C1OCc1ccc2ccccc2c1 (stereo not shown) [Compound 81]
- % SST5 radio-ligand binding displaced at conc 0.25 (3P library): − (% SST5 radio-ligand binding displaced at cone (μM) −<40%)
- % SST5 radio-ligand binding displaced at conc 1.0 (3P library): ++ (% SST5 radio-ligand binding displaced at conc (μM) >60%)

SMILES: COC[C@H]1O[C@H](OCc2ccc3ccccc3c2)[C@H](NC(=O)CCCN)[C@@H](OCc2ccccc2Cl)[C@@H]1O [Compound 146]
- % SST5 radio-ligand binding displaced at conc 0.25 (3P library): − (% SST5 radio-ligand binding displaced at cone (μM) −<40%)
- % SST5 radio-ligand binding displaced at conc 1.0 (3P library): ++ (% SST5 radio-ligand binding displaced at conc (μM) >60%)

SMILES: COC[C@H]1O[C@H](OCc2ccc3ccccc3c2)[C@H](NC(=O)CCN(C)C)[C@@H](OCc2ccc3ccccc3c2)[C@@H]1O [Compound 106]
- % SST5 radio-ligand binding displaced at conc 0.25 (3P library): − (% SST5 radio-ligand binding displaced at cone (μM) −<40%)
- % SST5 radio-ligand binding displaced at conc 1.0 (3P library): − (% SST5 radio-ligand binding displaced at cone (μM) −<40%)

SMILES: COC[C@H]1O[C@H](OCc2ccc3ccccc3c2)[C@H](NC(=O)C2CNC2)[C@@H](OCc2ccc3ccccc3c2)[C@@H]1O [Compound 101]
- % SST5 radio-ligand binding displaced at conc 0.25 (3P library): − (% SST5 radio-ligand binding displaced at cone (μM) −<40%)
- % SST5 radio-ligand binding displaced at conc 1.0 (3P library): + (% SST5 radio-ligand binding displaced at cone (μM) 60>+>40%)

SMILES: COC1C(O)C(COCc2ccc(-c3ccccc3)cc2)OC(OCc2ccc3ccccc3c2)C1NC(=O)CCCN (mixture of isomers) [Compound 121]
- % SST5 radio-ligand binding displaced at conc 0.5 (3P library): + (% SST5 radio-ligand binding displaced at cone (μM) 60>+>40%)
- % SST5 radio-ligand binding displaced at conc 10 (3P library): + (% SST5 radio-ligand binding displaced at cone (μM) 60>+>40%)

SMILES: COC1C(O)C(COCc2ccccc2)OC(OCc2ccc(Cl)cc2)C1NC(=O)CN (mixture of isomers) [Compound 176]
- % SST5 radio-ligand binding displaced at conc 0.25 (3P library): − (% SST5 radio-ligand binding displaced at cone (μM) −<40%)
- % SST5 radio-ligand binding displaced at conc 1.0 (3P library): − (% SST5 radio-ligand binding displaced at cone (μM) −<40%)

SMILES: COC[C@H]1O[C@H](OCc2ccc3ccccc3c2)[C@H](NC(=O)CC(C)N)[C@@H](OCc2ccc3ccccc3c2)[C@@H]1O (stereo partly shown) [Compound 100]
- % SST5 radio-ligand binding displaced at conc 0.25 (3P library): + (% SST5 radio-ligand binding displaced at cone (μM) 60>+>40%)
- % SST5 radio-ligand binding displaced at conc 1.0 (3P library): ++ (% SST5 radio-ligand binding displaced at conc (μM) >60%)

SMILES: COCC1OC(OCc2ccc3ccccc3c2)C(NC(=O)CCCN)C(OCc2ccc(-c3ccccc3)cc2)C1O (mixture of isomers) [Compound 131]
- % SST5 radio-ligand binding displaced at conc 10 (3P library): ++ (% SST5 radio-ligand binding displaced at conc (μM) >60%)

SMILES: COCC1OC(OCc2ccc3ccccc3c2)C(NC(=O)CCN)C(OCc2ccc3ccccc3c2)C1O (mixture of isomers) [Compound 69]
- % SST5 radio-ligand binding displaced at conc 0.001 (conc 0.001 μM, 3P library): + (% SST5 radio-ligand binding displaced at cone (μM) 60>+>40%)
- % SST5 radio-ligand binding displaced at conc 0.10 (conc 0.10 μM, 3P library): ++ (% SST5 radio-ligand binding displaced at conc (μM) >60%)
- % SST5 radio-ligand binding displaced at conc 0.5 (3P library): ++ (% SST5 radio-ligand binding displaced at conc (μM) >60%)
- % SST5 radio-ligand binding displaced at conc 1.0 (3P library): ++ (% SST5 radio-ligand binding displaced at conc (μM) >60%)
- % SST5 radio-ligand binding displaced at conc 10 (3P library): ++ (% SST5 radio-ligand binding displaced at conc (μM) >60%)

SMILES: COC[C@H]1O[C@@H](SC)[C@H](NC(=O)CCCN)[C@@H](OCc2ccc3ccccc3c2)[C@@H]1O [Compound 25]
- % SST5 radio-ligand binding displaced at conc 50 (compound conc 50 μM, 2P library): − (% SST5 radio-ligand binding displaced at cone (μM) −<40%)
- % SST5 radio-ligand binding displaced at conc 250 (compound conc 250 μM, 2P library): − (% SST5 radio-ligand binding displaced at cone (μM) −<40%)
- % SST5 radio-ligand binding displaced at conc 500 (compound conc 500 μM, 2P library): + (% SST5 radio-ligand binding displaced at cone (μM) 60>+>40%)

SMILES: COC[C@H]1O[C@H](OCc2ccc3ccccc3c2)[C@H](NC(=O)CCCN)[C@@H](OCc2ccc3ccccc3n2)[C@@H]1O [Compound 153]
- % SST5 radio-ligand binding displaced at conc 0.25 (3P library): ++ (% SST5 radio-ligand binding displaced at conc (μM) >60%)
- % SST5 radio-ligand binding displaced at conc 1.0 (3P library): ++ (% SST5 radio-ligand binding displaced at conc (μM) >60%)
